Experimental data from patent US20250288567A1, “PHARMACEUTICAL COMPOSITION FOR TREATING PRESBYOPIA” (Sight Health Hong Kong Biotechnology Co., Limited, priority 2024, published 2025).
Several values for one entry are separate records, joined by “and”; a condition that tells them apart may be missing. Identical values can stand only once.

Legend:
[1] = test system: presbyopia patients; test: Visual acuity before and after treatment with Huperzine A, TRAC1 and their combination (three patients); type: in vivo, human; design: scale not given here
Description: This hypothesis is tested by using 0.05%-0.3% Huperzine A and 0.05%-0.3% TRAC1. Three patients are treated with each drug, as well as the combination of both drugs.

[2] = test system: patients with astigmatism (UDVA less than 0.8); test: Uncorrected distance visual acuity (UDVA) of eyes with astigmatism after Huperzine A eye drops; type: in vivo, human; details: 2 patients, 4 eyes with astigmatism
Description: (§1) A non-randomized clinical case study involving 40 eyes of 20 presbyopia patients with uncorrected distance visual acuity (UDVA) of 0.4-1.0 and uncorrected near visual acuity (UNVA) of less than Jaeger1, aged 33-70 years is conducted. The patients are randomly divided into 3 groups, using eye drops with concentration of Huperzine A ranging from 0.1%-0.3% for clinical trials. Data are collected on changes in visual acuity, including UDVA, UNVA40, UNVA66, pupil diameter changes, and non-contact intraocular pressure, before and 30 minutes after Huperzine A eye drops. The data are grouped according to drug concentration and age and are analyzed. The discomfort symptoms appeared half an hour after using the eye drops are recorded, and the time when the relevant symptoms disappeared is obtained during the telephone interview in the following 3 days. A detailed description of the case study is further illustrated below.
Participants first complete a health declaration questionnaire with assistance from medical staff. They then measure their blood pressure and heart rate before undergoing computer optometry, as well as examinations for best corrected distance visual acuity and uncorrected distance visual acuity. They use the Jaeger score table to assess uncorrected reading visual acuity at 40 cm (UNVA40) and 66 cm (UNVA66) for computer visual acuity. […]

[3] = test system: presbyopia patients; test: Non-randomized clinical case study of Huperzine A eye drops: uncorrected near visual acuity (UNVA40, UNVA66) before and 30 minutes after; type: in vivo, human
Description: as §1
The clinical study of the present invention is conducted in March 2022 at a university hospital. Individuals over the age of 30 who feel their near vision has decreased are recruited and voluntarily participate in the test through a long-term open recruitment process. Inclusion criteria include best corrected distance visual acuity of 1.0, 40 cm reading visual acuity (UNVA40) or 66 cm computer visual acuity (UNVA66) lower than the Jaeger score J1, normal intraocular pressure, no history of retinal-related medical conditions, good general health, absence of systemic symptoms, and no rheumatic or systemic immune diseases.
Participants first complete a health declaration questionnaire with assistance from medical staff. They then measure their blood pressure and heart rate before undergoing computer optometry, as well as examinations for best corrected distance visual acuity and uncorrected distance visual acuity. They use the Jaeger score table to assess uncorrected reading visual acuity at 40 cm (UNVA40) and 66 cm (UNVA66) for computer visual acuity. Additionally, they have non-contact intraocular pressure measurements, pupil diameter assessments under room lighting, and a slit lamp examination by an experienced clinical ophthalmologist to rule out ocular diseases. Fundus photography is also performed.
Participants who meet the screening criteria are randomly divided into […]. One drop of 0.1%-0.3% Huperzine A eye drops is administered in each eye. After 30 minutes, the best corrected distance visual acuity, uncorrected distance visual acuity at 40 cm (UNVA40), and 66 cm computer visual acuity (UNVA66) are measured again, along with non-contact intraocular pressure and pupil diameter under room lighting.
The drug used in this present test is Huperzine A at a range of 0.1%-0.3% concentration, using standard ophthalmic dropper bottles, each yielding 40 μL drops and each drop effectively dispenses 0.1%-0.3%.
The collected data are organized so that J1+ is recorded as 0 on the Jaeger scale, J1 as 1, J2 as 2, and so forth.
The patients are grouped by age: 40 years old or below (2 people, 4 eyes), 41-50 years old (9 people, 18 eyes), 51-60 years old (6 people, 12 eyes), 61-70 years old (2 people, 4 eyes), and over 70 years old (1 people, 2 eyes).

[4] = test system: presbyopia patients; test: Side effects reported by patients after Huperzine A eye drops; details: human, in vivo
Description: as §1
The duration of these side effects varies from 2 to 5 hours and gradually relieves over time. Additionally, some patients report an increase in tear secretion after using the eye drops.

[5] = Patient 1, Right eye (OD), Jaeger score, 0.05%-0.3%
[6] = Group 1, 40 years old or below, 2 people 4 eyes
[7] = Group 2, 41-50 years old, 9 people 18 eyes
[8] = Group 3, 51-60 years old, 6 people 12 eyes
[9] = Group 4, 61-70 years old, 2 people 4 eyes
[10] = Group 5, over 70 years old, 1 person 2 eyes
[11] = all patients, 20 patients 40 eyes, 0.1%-0.3% eye drops, 30 minutes after

## Nc1c2c(nc3ccccc13)CCCC2 [Tacrine]
[1]; Patient 1, Left eye (OS)
  Near 40 cm, After treatment: 3
  Near 40 cm, Improvement: 2
  Near 66 cm, After treatment: 2
  Near 66 cm, Improvement: 2
[1]; Patient 1, Right eye (OD)
  Near 40 cm, Improvement: 3
  Near 66 cm, After treatment: 2
  Near 66 cm, Improvement: 2
[1]; [5]
  Near 40 cm, After treatment: 3
[1]; Patient 2, Left eye (OS)
  Near 40 cm, After treatment: 4
  Near 40 cm, Improvement: 5
  Near 66 cm, After treatment: 2
  Near 66 cm, Improvement: 4
[1]; Patient 2, Right eye (OD)
  Near 40 cm, After treatment: 4
  Near 40 cm, Improvement: 6
  Near 66 cm, After treatment: 3
  Near 66 cm, Improvement: 3
[1]; Patient 3, Left eye (OS)
  Near 40 cm, After treatment: 3
  Near 40 cm, Improvement: 8
  Near 66 cm, After treatment: 3
  Near 66 cm, Improvement: 6
[1]; Patient 3, Right eye (OD)
  Near 40 cm, After treatment: 2
  Near 40 cm, Improvement: 6
  Near 66 cm, After treatment: 2
  Near 66 cm, Improvement: 5

## C/C=C1\[C@H]2C=C(C)C[C@]1(N)c1ccc(=O)[nH]c1C2 [Huperzine A]
[2]
  UDVA increase after Huperzine A eye drops: 0.2 and 0.1
[1]; Patient 1, Left eye (OS)
  Near 40 cm, After treatment: 3
  Near 40 cm, Improvement: 2
  Near 66 cm, After treatment: 2
  Near 66 cm, Improvement: 2
[1]; Patient 1, Right eye (OD)
  Near 40 cm, Improvement: 3
  Near 66 cm, After treatment: 2
  Near 66 cm, Improvement: 2
[1]; [5]
  Near 40 cm, After treatment: 3
[1]; Patient 2, Left eye (OS)
  Near 40 cm, After treatment: 4
  Near 40 cm, Improvement: 5
  Near 66 cm, After treatment: 2
  Near 66 cm, Improvement: 4
[1]; Patient 2, Right eye (OD)
  Near 40 cm, After treatment: 4
  Near 40 cm, Improvement: 6
  Near 66 cm, After treatment: 3
  Near 66 cm, Improvement: 3
[1]; Patient 3, Left eye (OS)
  Near 40 cm, After treatment: 3
  Near 40 cm, Improvement: 8
  Near 66 cm, After treatment: 3
  Near 66 cm, Improvement: 6
[1]; Patient 3, Right eye (OD)
  Near 40 cm, After treatment: 2
  Near 40 cm, Improvement: 6
  Near 66 cm, After treatment: 2
  Near 66 cm, Improvement: 5
[3]; [6]
  N40 improved: 2.25 J
  N66 improved: 1.50 J
  UNVA40 after treatment (Near 40, After): 1.00 J
  UNVA66 after treatment (Near 66, After): 2.75 J
[3]; [7]
  N40 improved: 3.05 J and 3.06 J
  N66 improved: 1.72 J
  UNVA40 after treatment (Near 40, After): 1.89 J
  UNVA66 after treatment (Near 66, After): 1.61 J
[3]; [8]
  N40 improved: 1.92 J
  N66 improved: 2.33 J
  UNVA40 after treatment (Near 40, After): 3.75 J
  UNVA66 after treatment (Near 66, After): 3.67 J
[3]; [9]
  N40 improved: 3.75 J
  N66 improved: 2.00 J
  UNVA40 after treatment (Near 40, After): 2.25 J
  UNVA66 after treatment (Near 66, After): 3.00 J
[3]; [10]
  N40 improved: 6.00 J
  N66 improved: 4.50 J
  UNVA40 after treatment (Near 40, After): 7.00 J
  UNVA66 after treatment (Near 66, After): 4.00 J
[3]; [11]
  N40 improved (average improvement of UNVA40): 2.85 J
  N66 improved (average improvement of UNVA66): 2.05 J
[3]; all patients, 20 patients 40 eyes, 0.1%-0.3% eye drops, 30 minutes after, Jaeger score
  UNVA66 after treatment (Near 66, After): 2.60 J
[3]; all patients, 20 patients 40 eyes, 0.1%-0.3% eye drops, 30 minutes after, Jaeger score, J1+ = 0
  UNVA40 after treatment (Near 40, After): 2.65 J
[3]; human, in vivo
  effect on near vision, 41-50-year-old group compared with 51-60-year-old group: more significant effect on the former group
[4]
  lacrimation (side effect): 6%
